Test systems include T-47D breast; U251 CNS; SR leukemia; ACHN renal; MOLT-4 leukemia; NCI-H226 lung; K-562 leukemia; OVCAR-3 ovarian; OVCAR-5 ovarian; SF-268 CNS.
Common to all, as to test: NCI anticancer screen, dose series, 48 h

Molecules are shown by their SMILES.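 The compound was tested at five concentrations on cells cultured in 96-well plates, with a 48-hour exposure period. Here, GI50 denotes the concentration required for 50% inhibition of growth. The concentration for full growth arrest is given as TGI.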

This passage reports GI50 and TGI results from PubChem BioAssay (NCI).

For the molecule `CC[C@@]1(O)C(=O)NCc2c1cc1n(c2=O)Cc2cc3ccccc3nc2-1`, the GI50 in the test on T-47D breast was 2.63 µM; in the test with U251 CNS, 2.39 µM; with SR leukemia, 0.123 µM; in the test on ACHN renal, 0.578 µM; with MOLT-4 leukemia, 0.3 µM; with NCI-H226 lung, more than 100 µM. The GI50 with K-562 leukemia was 4.4 µM; in the test with OVCAR-3 ovarian, 34.4 µM; with OVCAR-5 ovarian, 15.1 µM; in the test on SF-268 CNS it was 0.706 µM. In addition, the TGI is more than 100 µM in the test with T-47D breast; more than 42.8 µM in the test with U251 CNS; 0.503 µM in the test on SR leukemia; 2.2 µM with MOLT-4 leukemia; more than 100 µM in the test on NCI-H226 lung; more than 100 µM with K-562 leukemia. Besides, the TGI in the test on OVCAR-3 ovarian, in the test on OVCAR-5 ovarian and with SF-268 CNS was more than 100 µM throughout.
`Cn1nc(C(F)(F)F)c(-c2ccc(Cl)c(C(F)(F)F)c2)c1-c1ccc(OCc2ccc(Cl)cc2)cc1O`: the GI50 was 1.27 µM in the test with T-47D breast; 1.66 µM in the test on U251 CNS; 2.06 µM with SR leukemia; 1.61 µM with ACHN renal; 1.81 µM in the test on MOLT-4 leukemia; 1.73 µM with NCI-H226 lung. Besides, the GI50 in the test with K-562 leukemia is 1.84 µM; in the test with OVCAR-3 ovarian, 1.66 µM; in the test on OVCAR-5 ovarian it was 1.83 µM; in the test with SF-268 CNS it was 1.77 µM. Moreover, the TGI in the test with T-47D breast amounted to 5.32 µM; with U251 CNS, 5.62 µM; in the test with SR leukemia it was 7.34 µM; with ACHN renal, 5.03 µM; in the test on MOLT-4 leukemia it was 6.2 µM; in the test on NCI-H226 lung, 6.84 µM. Moreover, the TGI in the test with K-562 leukemia was found to be 7.47 µM; in the test with OVCAR-3 ovarian, 5.8 µM; in the test with OVCAR-5 ovarian, 8.26 µM; with SF-268 CNS, 7.52 µM.
Take `Cn1c2ccccc2c(=Nc2ccccc2)c2c3ccccc3[nH]c21`: the GI50 with T-47D breast is 3.91 µM; in the test on U251 CNS, 1.15 µM; in the test on ACHN renal it was 0.755 µM; with MOLT-4 leukemia it was 0.32 µM; in the test on NCI-H226 lung it was 0.615 µM; in the test on K-562 leukemia it was 1.84 µM. In addition, the GI50 with OVCAR-5 ovarian was 7.6 µM; with SF-268 CNS it was 0.436 µM. Also, the TGI with T-47D breast was more than 100 µM; in the test on U251 CNS, 2.45 µM; in the test on ACHN renal, 1.99 µM; in the test on MOLT-4 leukemia, 11.7 µM; in the test on NCI-H226 lung, 2 µM; with K-562 leukemia, 15.7 µM. The TGI in the test with OVCAR-5 ovarian amounted to 59.9 µM; in the test on SF-268 CNS, 2.37 µM.
In the case of `Nc1[nH]c(=O)ncc1F`, the TGI in the test on T-47D breast, in the test with U251 CNS, in the test with SR leukemia, in the test with ACHN renal, with MOLT-4 leukemia and in the test on NCI-H226 lung was more than 100 µM each time. Further, the TGI with K-562 leukemia, with OVCAR-3 ovarian, in the test with OVCAR-5 ovarian and in the test on SF-268 CNS was more than 100 µM throughout.
With `COc1ccc(N2CCN(C(=O)c3ccccc3Nc3ccnc(C(F)(F)F)c3)CC2)cc1`, the GI50 with T-47D breast was 9.23 µM; in the test with U251 CNS, 83.9 µM; with SR leukemia, 10.8 µM; in the test on ACHN renal, more than 100 µM; in the test with MOLT-4 leukemia, 29.3 µM; in the test on NCI-H226 lung, 96.5 µM. Also, the GI50 is 59.3 µM with K-562 leukemia, 28.5 µM in the test with OVCAR-3 ovarian, more than 100 µM in the test on OVCAR-5 ovarian and more than 100 µM in the test with SF-268 CNS. Moreover, the TGI with T-47D breast was 96.7 µM; with U251 CNS it was more than 100 µM; in the test on SR leukemia, more than 100 µM; in the test on ACHN renal it was more than 100 µM; in the test with MOLT-4 leukemia, more than 100 µM; in the test on NCI-H226 lung, more than 100 µM. Besides, the TGI in the test with K-562 leukemia, in the test on OVCAR-3 ovarian, in the test on OVCAR-5 ovarian and with SF-268 CNS was more than 100 µM each time.
As for `CCCCCCCCCCCCn1c(C)nc2ccccc21`, the GI50 with T-47D breast was 0.325 µM; in the test on U251 CNS it was 11 µM; in the test on ACHN renal, 13.2 µM; with MOLT-4 leukemia it was 10.2 µM; in the test on NCI-H226 lung it was 12.7 µM; with K-562 leukemia it was 1.11 µM. Further, the GI50 in the test with OVCAR-3 ovarian was 14.7 µM; in the test with OVCAR-5 ovarian it was 4.78 µM; in the test with SF-268 CNS, 19.6 µM. The TGI in the test on T-47D breast came out at 19.1 µM; in the test with U251 CNS it was 24.9 µM; in the test on ACHN renal, 26.5 µM; in the test with MOLT-4 leukemia, 23.5 µM; in the test on NCI-H226 lung, 31.7 µM; in the test with K-562 leukemia, 16.4 µM. Besides, the TGI with OVCAR-3 ovarian was determined as 30.2 µM; in the test on OVCAR-5 ovarian, 17.6 µM; with SF-268 CNS, 41.1 µM.
In the case of `COc1ccc(SC2c3cc(OC)c(OC)cc3Oc3nc(N)c(C#N)c(N)c32)cc1` (configuration not stated), the GI50 in the test with T-47D breast is 1.3 µM; in the test with U251 CNS it was 0.954 µM; in the test on ACHN renal, 1.74 µM; with MOLT-4 leukemia it was 0.315 µM; with NCI-H226 lung it was 1.37 µM; in the test on OVCAR-3 ovarian, 1.06 µM. For the same molecule, the GI50 in the test on OVCAR-5 ovarian is 1.75 µM; in the test with SF-268 CNS, 1.55 µM. The TGI stood at 3.31 µM in the test with T-47D breast; 2.18 µM in the test on U251 CNS; 3.12 µM in the test on ACHN renal; 1.6 µM in the test on MOLT-4 leukemia; 2.68 µM with NCI-H226 lung; 2.31 µM in the test with OVCAR-3 ovarian. The figures for the TGI with OVCAR-5 ovarian and with SF-268 CNS were 3.39 µM and 3.07 µM, respectively.
`O=C1c2ccccc2C(=O)c2c1ccc(C(Br)Br)c2[N+](=O)[O-]`: the GI50 was 1.63 µM with T-47D breast; 1.6 µM with U251 CNS; 0.259 µM in the test with SR leukemia; 1.53 µM in the test on ACHN renal; 1.23 µM in the test on MOLT-4 leukemia; 0.727 µM with NCI-H226 lung. Moreover, the GI50 in the test on OVCAR-3 ovarian was 1.63 µM; in the test on OVCAR-5 ovarian, 1.72 µM; with SF-268 CNS, 1.57 µM. In addition, the TGI with T-47D breast was determined as 3.89 µM; in the test with U251 CNS, 2.97 µM; with SR leukemia it was 1.75 µM; in the test with ACHN renal, 2.86 µM; with MOLT-4 leukemia, 3.43 µM; in the test on NCI-H226 lung, 2.62 µM. In addition, the results for the TGI in the test on OVCAR-3 ovarian, in the test on OVCAR-5 ovarian and with SF-268 CNS were 3.04 µM, 4.4 µM and 3.17 µM, respectively.
